Test results published in patent US8962612B2, “Tetrahydroisoquinoline derivative” (Astellas Pharma Inc, priority 2011, dated 2015).
pKi: −log10 of the molar value.

Tests used:
human 5-HT5A receptor = human 5-HT5A receptor (Homo sapiens (Human), UniProt P47898); assay: Human 5-HT5A receptor binding inhibition test ([3H]5-CT); settings: [3H]5-CT binding, membranes of HEK293 cells expressing human 5-HT5A receptor; Ki calculated from IC50, Kd 4.95 nM
Protocol: An open reading frame (ORF; protein coding region) of human 5-HT5A receptor (Genbank AF498985) was cloned from a human hippocampus cDNA library and then inserted into a pCR2.1 vector (Invitrogen), and E. coli carrying the plasmid was cultured in a large scale. Thereafter, a full-length cDNA sequence of the human 5-HT5A receptor was analyzed and recombined into pcDNA3.1 vector (Invitrogen) as an expression vector, followed by a large scale culturing. The HEK293 cells (ATCC) as a human embryonic kidney-derived cell line were seeded, and the expression plasmid (1 μg) obtained as above was added thereto together with LIPOFECTAMINE 2000 (Invitrogen; 2 μl) to introduce genes into the HEK293 cells. Subsequently, expression cells were screened using Geneticin (G418 sulfate 500 μg/ml; KANTO KAGAKU) as a drug resistance marker. The recombinant cells expressing the genes prepared in this manner were cultured for 3 days in Dulbecco's Modified Eagle Medium (D-MEM, Sigma) supplemented with 10% fetal calf serum (FCS), 1% penicillin/streptomycin (Pc./Sm, Invitrogen), and 500 μg/ml G418. The above experimental procedure was performed according to a genetic engineering experiment manual of a known method (Sambrook, J. et al, “Molecular Cloning-A Laboratory manual”, Cold Spring Harbor Laboratory, NY, 1989) or the like, or the instruction attached to the reagents.
The HEK293 cells forced to express the human 5-HT5A receptor were cultured in a F500 plate and collected by being scarped with a scraper. After centrifugation, the sediment was collected, and an incubation buffer (50 mM Tris(HCl), pH 7.4, 10 mM MgSO4, 0.5 mM ethylenediaminetetraacetic acid (EDTA)) was added thereto. After homogenization, centrifugation was performed again, and the sediment was thoroughly suspended in the incubation buffer added thereto. After this procedure was repeated, the protein concentration was measured, thereby completing membrane preparation.
A test compound and 150 μM of a DMSO solution of 5-carboxamide tryptamine (5-CT) were added to a 96-well plate at 2 μl/well and suspended in the incubation buffer, and the HEK293 cells forced to express the human 5-HT5A receptor that were prepared at a concentration of 200 μg/ml were added thereto at 100 μl/well. The cells were incubated for 15 minutes at room temperature, and then a [^3H]5-CT solution (3 nM [^3H]5-CT, incubation buffer) was added thereto at 100 μl/well.
100 μl of the cell solution was separately dispensed into a liquid scintillation vial, and 2 ml of Aquasol II (registered trademark) was added thereto, followed by stirring. Thereafter, the radioactivity thereof was measured using a liquid scintillation counter. The cells were incubated for 60 minutes at 37° C. The reaction mixture was aspirated into a 96-well GF/C filter plate having undergone pretreatment with 0.2% polyethyleneimine, and washed 6 times with an ice-cold 50 mM Tris (pH 7.4) buffer. Thereafter, the GF/C filter plate was dried.
MicroScint™-PS (registered trademark) was added to the plate at 40 μl/well, and the radioactivity remaining on the GF/C filter plate was measured using TopCount.
In each test example, regarding the [^3H]5-CT binding inhibitory activity resulting from the test compound, the radioactivity at the time when only DMSO was added was regarded as 0%, and the radioactivity at the time when 1.5 μM 5-CT was added was regarded as 100% inhibition, thereby calculating an IC50 value. In addition, from a Kd value of [^3H]5-CT obtained from Scatchard analysis, a Ki value was calculated by the following formula. Ki=IC50/(1+concentration of ligand added/Kd(4.95 nM))

BALB/3T3 = assay: Test for evaluating phototoxic effect (neutral red incorporation, UV irradiation); format: cell-based; settings: BALB/3T3, UV 70 minutes 1200 μW/cm2 vs non-irradiated
Protocol: 1) BALB/3T3 is peeled from a culture flask, and the cell number is counted.
2) The cell concentration is adjusted to 0.7×10^5 cells/ml, and the cells are seeded into a 96-well plate at 100 μl/well. PBS is added in an amount of 100 μl to a line of wells in both ends where the cells are not seeded.
3) The cells are cultured in a CO2 incubator for 1 day.
4) DMSO is added to a test compound, and the EBSS is further added thereto and dissolved. Ultrasonic waves, heating.
5) The compound solution of the highest concentration is transferred to the adjacent tube by 300 μL. This operation is repeated to prepare solutions having serial dilution concentration.
10) For each compound, compound solutions of 8-serial dilutions are dispensed at 100 μL/well.
11) The plates are allowed to stand still in a dark place (in a drawer of a lab bench) for 60 minutes.
12) Thereafter, the plates are irradiated with UV for 70 minutes (1200 μW/cm^2). The plate not irradiated is put in an empty box.
1) Neutral red (NR) is prepared in an amount of 50 μg/ml
3) The NR solution is dispensed at 100 μL/well.
4) Culturing is performed for 3 hours in a CO2 incubator.
8) The NR eluent is dispensed at 150 μl/well.
10) An absorbance at 540 nm is measured using a microplate reader.
According to the above test example 8, several compounds of formula (I) were evaluated. […] Herein, MPE refers to a value showing Mean Photo Effect. MPE can be calculated according to Equation 2 of the following document, for example.

male ICR mouse [1] = assay: MK-801-induced increase in level of physical activity (hyperactivity) of mouse; format: in vivo; settings: MK-801 0.3 mg/kg, significance P<0.05 vs vehicle
Protocol: (§1) The improvement effect of the compound of formula (I) on schizophrenia was evaluated by the measurement of the level of physical activity reduced by the administration of the compound, in a model having symptoms induced by methamphetamine (hereinafter, abbreviated to MAP) and MK-801.
(§2) The animals were taken out of a breeding cage, and the test compound was orally administered to the animal. Thereafter, the animals were put in the breeding cage. 30 minutes later, the animals were put in a cage for measurement, and the level of physical activity of the animals administered only with the test compound was measured. Another 30 to 90 minutes later, the animals were taken out, and drugs (MAP; 1.5 mg/kg or MK-801; 0.3 mg/kg dissolved in physiological saline) increasing the level of physical activity were respectively administered to the animals subcutaneously or intraperitoneally. The level of physical activity for a certain period of time (60 minutes) was measured using an instrument measuring a level of physical activity (CompACT AMS, MUROMACHI KIKAI CO., LTD.) by an infrared sensor.
For the normal mouse (mouse administered with physiological saline) and the mouse administered with the medication increasing the level of physical activity, Student's T test was performed in the respective intervals to judge the effect. For the group administered with the test compound, Dunnett's T test was performed for the comparison with a vehicle group, whereby the effect of the compound was tested. When there was a significant difference (P<0.05), the compound was judged to be effective.

male ddy mouse = assay: Scopolamine-induced spontaneous alternation behavior in mouse (Y-maze); format: in vivo; settings: scopolamine 0.5 mg/kg i.p., alternation rate, p<0.05 vs control
Protocol: The improvement effect of the compound of formula (I) on dementia and the cognitive disease of schizophrenia was evaluated by the known test method described above by using a short-term learning disability model.
10 to 30 minutes after the test compound was orally administered, scopolamine at 0.5 mg/kg or MK-801 (physiological saline for a normal group) at 0.15 mg/kg was intraperitoneally administered, and the test was performed 20 minutes after the administration. In addition, for a normal group (group administered with physiological saline) and a control group (group administered with scopolamine at 0.5 mg/kg or MK-801 at 0.15 mg/kg), a vehicle was orally administered when the test compound was administered.
The mouse was put into one end of an arm of a maze (Y-maze) having arms of the same length that extended in three directions. The mouse was allowed to freely explore for 8 minutes, and the number of entries into the arm for the 8 minutes was counted. Moreover, a case where the mouse consecutively entered three different arms was regarded as spontaneous alternation behavior, and a ratio of the number of times of such a behavior to the total entry number was regarded as alternation rate and calculated by the following formula. Alternation rate(%)=number of times of spontaneous alternation behavior/(total entry number−2)×100
When a significant difference (Student's T test) was observed between the normal group and the control group in the alternation rate (%), the learning disability was considered to be induced by the administration of scopolamine or MK-801. By performing Dunnette's test for comparing the test compound-administered groups with the control group, whether or not the test compound has an action […] was determined. In each test, p<0.10 was regarded as a trend, and p<0.05 was regarded as a significant difference.

male ICR mouse [2] = assay: Methamphetamine (MAP)-induced increase in level of physical activity (hyperactivity) of mouse; format: in vivo; settings: oral dose 0.03 mg/kg; MAP 1.5 mg/kg; significance P<0.05 vs vehicle
Protocol: as §1, §2
For the normal mouse (mouse administered with physiological saline) and the mouse administered with the medication increasing the level of physical activity, Student's T test was performed in the respective intervals to judge the effect. […]

Chain of human 5-HT5A receptor (P47898 whole entry): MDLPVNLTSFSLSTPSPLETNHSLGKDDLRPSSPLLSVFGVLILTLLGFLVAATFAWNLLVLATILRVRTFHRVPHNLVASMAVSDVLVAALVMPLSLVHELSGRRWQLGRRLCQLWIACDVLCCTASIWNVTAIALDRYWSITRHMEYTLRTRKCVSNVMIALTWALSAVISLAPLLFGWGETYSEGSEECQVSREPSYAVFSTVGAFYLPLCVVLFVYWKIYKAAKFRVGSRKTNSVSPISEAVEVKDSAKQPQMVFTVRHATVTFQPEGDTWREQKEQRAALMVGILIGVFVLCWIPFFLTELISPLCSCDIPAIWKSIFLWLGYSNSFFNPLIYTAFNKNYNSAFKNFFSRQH

| SMILES | pKi (human 5-HT5A receptor) | other results |
| --- | --- | --- |
| NC(N)=NC(=O)N1CCc2c(F)ccc(-c3ncc(Cl)cc3F)c2C1 [Ex 4, 8-(5-chloro-3-fluoropyridin-2-yl)-N-(diaminomethylene)-5-fluoro-3,4-dihydroisoquinoline-2(1H)-carboxamide] | 8.37 | – |
| NC(N)=NC(=O)N1CCc2cccc(-c3cc(F)c(F)cc3F)c2C1 [Ex 8] | 8.44 | – |
| NC(N)=NC(=O)N1CCc2c(Cl)ccc(-c3ccc(F)cc3F)c2C1 [Ex 44] | 8.57 | – |
| Cl.NC(N)=NC(=O)N1CCc2c(F)ccc(-c3ncc(F)cc3F)c2C1 [Ex 46] | 8.16 | hyperactivity induced by MK-801 (male ICR mouse [1]; oral dose 0.03 mg/kg): significantly suppressed; scopolamine-induced spontaneous alternation behavior (male ddy mouse; oral dose 0.003 mg/kg): significantly inhibited |
| NC(N)=NC(=O)N1Cc2c(-c3ccc(F)cc3F)ccc(Cl)c2C(F)C1 (stereo not drawn) [Ex 49] | 8.18 | – |
| Cc1ccc(-c2ncc(F)cc2F)c2c1CCN(C(=O)N=C(N)N)C2 [Ex 60] | 8.41 | hyperactivity induced by MK-801 (male ICR mouse [1]; oral dose 0.03 mg/kg): significantly suppressed |
| NC(N)=NC(=O)N1CCc2c(Cl)ccc(-c3c(F)cncc3F)c2C1 [Ex 61] | 8.60 | – |
| NC(N)=NC(=O)N1Cc2c(C3CC3)ccc(F)c2C2(CC2)C1 [Ex 76] | 8.57 | hyperactivity induced by MK-801 (male ICR mouse [1]; oral dose 0.1 mg/kg): significantly suppressed |
| NC(N)=NC(=O)N1CCc2c(F)ccc(-c3cc(F)c(F)cc3F)c2C1 [Ex 79] | 8.43 | – |
| NC(N)=NC(=O)N1CCc2cccc(-c3ncc(F)cc3F)c2C1 [Ex 81] | 8.38 | – |

The next compounds have a higher pKi (human 5-HT5A receptor) than those just listed; values first:

| pKi (human 5-HT5A receptor) | SMILES | other results |
| --- | --- | --- |
| 8.96 | NC(N)=NC(=O)N1CCc2c(Cl)ccc(-c3c(F)cc(F)cc3F)c2C1 [Ex 23] | MPE (Mean Photo Effect) (BALB/3T3): 0.00; hyperactivity induced by MK-801 (male ICR mouse [1]; oral dose 0.03 mg/kg): significantly suppressed; scopolamine-induced spontaneous alternation behavior (male ddy mouse; oral dose 0.003 mg/kg): significantly inhibited |
| 9.17 | NC(N)=NC(=O)N1CCc2c(F)ccc(-c3c(F)cc(F)cc3F)c2C1 [Ex 26] | MPE (Mean Photo Effect) (BALB/3T3): 0.00; hyperactivity induced by MAP (male ICR mouse [2]): significantly inhibited; hyperactivity induced by MK-801 (male ICR mouse [1]; oral dose 0.03 mg/kg): significantly suppressed; scopolamine-induced spontaneous alternation behavior (male ddy mouse; oral dose 0.03 mg/kg): significantly inhibited |
| 8.96 | NC(N)=NC(=O)N1CCc2c(F)ccc(-c3c(F)cccc3F)c2C1 [Ex 28] | MPE (Mean Photo Effect) (BALB/3T3): 0.00; hyperactivity induced by MAP (male ICR mouse [2]): significantly inhibited; hyperactivity induced by MK-801 (male ICR mouse [1]; oral dose 0.03 mg/kg): significantly suppressed; scopolamine-induced spontaneous alternation behavior (male ddy mouse; oral dose 0.003 mg/kg): significantly inhibited |
| 8.72 | NC(N)=NC(=O)N1CCc2c(F)ccc(-c3ncc(Cl)cc3Cl)c2C1 [Ex 62] | hyperactivity induced by MK-801 (male ICR mouse [1]; oral dose 0.01 mg/kg): significantly suppressed; scopolamine-induced spontaneous alternation behavior (male ddy mouse; oral dose 0.003 mg/kg): significantly inhibited |
| 9.12 | NC(N)=NC(=O)N1Cc2c(-c3c(F)cccc3F)ccc(F)c2C2(CC2)C1 [Ex 66] | – |
| 8.80 | CC1CN(C(=O)N=C(N)N)Cc2c(-c3c(F)cccc3F)ccc(F)c21 (stereo not drawn) [Ex 69] | – |
| 9.06 | NC(N)=NC(=O)N1Cc2c(-c3c(F)cc(F)cc3F)ccc(F)c2C2(CC2)C1 [Ex 74] | – |
| 8.89 | NC(N)=NC(=O)N1Cc2c(-c3cc(F)c(F)cc3F)ccc(F)c2C2(CC2)C1 [Ex 78] | hyperactivity induced by MK-801 (male ICR mouse [1]; oral dose 0.1 mg/kg): significantly suppressed; scopolamine-induced spontaneous alternation behavior (male ddy mouse; oral dose 0.03 mg/kg): significantly inhibited |
| 9.07 | NC(N)=NC(=O)N1Cc2c(-c3ccc(F)cc3F)ccc(F)c2C2(CC2)C1 [Ex 80] | – |
| 9.02 | NC(N)=NC(=O)N1Cc2c(-c3ccccc3F)ccc(F)c2C2(CC2)C1 [Ex 86] | – |
